Assay results taken from ChEMBL document CHEMBL3044911, “Effect of distribution and concentration of topically applied neonicotinoid insecticides in buffalograss, Buchloe dactyloides, leaf tissues on the differential mortality of Blissus occiduus under field conditions” (Pest Manag Sci, 2013).
Active and inactive are the calls of the source. The calls are words filed in the database; no cut-off is given here.

Assays:
[1] = test system: Lygaeidae; assay: Insecticidal activity against second generation Blissus occiduus in buffalograss under field condition assessed as reduction in number at 89.7 kg/ha measured 55 days after treatment; format: functional, organism-based
[2] = test system: Urochloa mutica; assay: Drug level in […] (buffalo grass) measured per gram of fresh weight at 19.1 kg/ha measured 28 days after treatment; format: ADME, organism-based; settings: in vivo, 672 h
[3] = test system: Urochloa mutica; assay: Drug level in […] (buffalo grass) measured per gram of fresh weight at 19.1 kg/ha measured 3 days after treatment; format: ADME, organism-based; settings: in vivo, 72 h
[4] = test system: Lygaeidae; assay: Insecticidal activity against second generation Blissus occiduus in buffalograss under field condition assessed as reduction in number at 89.7 kg/ha measured 3 days after treatment; format: functional, organism-based
[5] = test system: Urochloa mutica; assay: Drug level in […] (buffalo grass) measured per gram of fresh weight at 19.1 kg/ha measured 7 days after treatment; format: ADME, organism-based; settings: in vivo, 168 h
[6] = test system: Lygaeidae; assay: Insecticidal activity against first generation Blissus occiduus in buffalograss under field condition assessed as reduction in number at 89.7 kg/ha measured 3 days after treatment; format: functional, organism-based
[7] = test system: Lygaeidae; assay: Insecticidal activity against second generation Blissus occiduus in buffalograss under field condition assessed as reduction in number at 89.7 kg/ha measured 7 days after treatment; format: functional, organism-based
[8] = test system: Urochloa mutica; assay: Drug level in […] (buffalo grass) measured per gram of fresh weight at 19.1 kg/ha measured 14 days after treatment; format: ADME, organism-based; settings: in vivo, 336 h
[9] = test system: Lygaeidae; assay: Insecticidal activity against second generation Blissus occiduus in buffalograss under field condition assessed as reduction in number at 89.7 kg/ha measured 28 days after treatment; format: functional, organism-based
[10] = test system: Lygaeidae; assay: Insecticidal activity against first generation Blissus occiduus in buffalograss under field condition assessed as reduction in number at 89.7 kg/ha measured 8 days after treatment; format: functional, organism-based
[11] = test system: Lygaeidae; assay: Insecticidal activity against first generation Blissus occiduus in buffalograss under field condition assessed as reduction in number at 89.7 kg/ha measured 106 days after treatment; format: functional, organism-based
[12] = test system: Urochloa mutica; assay: Drug level in […] (buffalo grass) measured per gram of fresh weight at 9.6 kg/ha measured 14 days after treatment; format: ADME, organism-based; settings: in vivo, 336 h
[13] = test system: Urochloa mutica; assay: Drug level in […] (buffalo grass) measured per gram of fresh weight at 9.6 kg/ha measured 3 days after treatment; format: ADME, organism-based; settings: in vivo, 72 h
[14] = test system: Lygaeidae; assay: Insecticidal activity against second generation Blissus occiduus in buffalograss under field condition assessed as reduction in number at 19.1 kg/ha measured 7 days after treatment; format: functional, organism-based
[15] = test system: Lygaeidae; assay: Insecticidal activity against second generation Blissus occiduus in buffalograss under field condition assessed as reduction in number at 19.1 kg/ha measured 3 days after treatment; format: functional, organism-based
[16] = test system: Lygaeidae; assay: Insecticidal activity against second generation Blissus occiduus in buffalograss under field condition assessed as reduction in number at 19.1 kg/ha measured 28 days after treatment; format: functional, organism-based
[17] = test system: Lygaeidae; assay: Insecticidal activity against first generation Blissus occiduus in buffalograss under field condition assessed as reduction in number at 19.1 kg/ha measured 3 days after treatment; format: functional, organism-based
[18] = test system: Lygaeidae; assay: Insecticidal activity against second generation Blissus occiduus in buffalograss under field condition assessed as reduction in number at 19.1 kg/ha measured 55 days after treatment; format: functional, organism-based
[19] = test system: Urochloa mutica; assay: Drug level in […] (buffalo grass) measured per gram of fresh weight at 9.6 kg/ha measured 7 days after treatment; format: ADME, organism-based; settings: in vivo, other, 168 h
[20] = test system: Lygaeidae; assay: Insecticidal activity against first generation Blissus occiduus in buffalograss under field condition assessed as reduction in number at 19.1 kg/ha measured 8 days after treatment; format: functional, organism-based
[21] = test system: Lygaeidae; assay: Insecticidal activity against first generation Blissus occiduus in buffalograss under field condition assessed as reduction in number at 19.1 kg/ha measured 106 days after treatment; format: functional, organism-based
[22] = test system: Urochloa mutica; assay: Drug level in […] (buffalo grass) measured per gram of fresh weight at 89.7 kg/ha measured 14 days after treatment; format: ADME, organism-based; settings: in vivo, 336 h
[23] = test system: Urochloa mutica; assay: Drug level in […] (buffalo grass) measured per gram of fresh weight at 89.7 kg/ha measured 28 days after treatment; format: ADME, organism-based; settings: in vivo, 672 h
[24] = test system: Urochloa mutica; assay: Drug level in […] (buffalo grass) measured per gram of fresh weight at 89.7 kg/ha measured 3 days after treatment; format: ADME, organism-based; settings: in vivo, 72 h
[25] = test system: Urochloa mutica; assay: Drug level in […] (buffalo grass) measured per gram of fresh weight at 89.7 kg/ha measured 7 days after treatment; format: ADME, organism-based; settings: in vivo, 168 h
[26] = test system: Lygaeidae; assay: Insecticidal activity against first generation Blissus occiduus in buffalograss under field condition assessed as reduction in number at 9.6 kg/ha measured 8 days after treatment; format: functional, organism-based
[27] = test system: Lygaeidae; assay: Insecticidal activity against second generation Blissus occiduus in buffalograss under field condition assessed as reduction in number at 9.6 kg/ha measured 7 days after treatment; format: functional, organism-based
[28] = test system: Lygaeidae; assay: Insecticidal activity against second generation Blissus occiduus in buffalograss under field condition assessed as reduction in number at 9.6 kg/ha measured 28 days after treatment; format: functional, organism-based
[29] = test system: Lygaeidae; assay: Insecticidal activity against second generation Blissus occiduus in buffalograss under field condition assessed as reduction in number at 9.6 kg/ha measured 3 days after treatment; format: functional, organism-based
[30] = test system: Lygaeidae; assay: Insecticidal activity against first generation Blissus occiduus in buffalograss under field condition assessed as reduction in number at 9.6 kg/ha measured 106 days after treatment; format: functional, organism-based
[31] = test system: Lygaeidae; assay: Insecticidal activity against second generation Blissus occiduus in buffalograss under field condition assessed as reduction in number at 9.6 kg/ha measured 55 days after treatment; format: functional, organism-based
[32] = test system: Lygaeidae; assay: Insecticidal activity against first generation Blissus occiduus in buffalograss under field condition assessed as reduction in number at 9.6 kg/ha measured 3 days after treatment; format: functional, organism-based

For `CN/C(=N\[N+](=O)[O-])NCc1cnc(Cl)s1` [CLOTHIANIDINE], the Activity [1] was “Active”, the drug content [2] was 0.19 µg/g and the drug content [3] was 6.48 µg/g. The Activity [4] was “Active”, the Drug uptake [5] was 1.56 µg/g and the Activity [6] was “Active”. The Activity [7] was “Active”, the drug content [8] was 0.66 µg/g and the Activity [9] was “Active”. For the same compound, the Activity [10] was “Active” and the Activity [11] was “Active”.

For `CN1COCN(Cc2cnc(Cl)s2)/C1=N\[N+](=O)[O-]` [THIAMETHOXAM], the drug content [12] was 0.16 µg/g, the drug content [13] was 6.2 µg/g and the Activity [14] was “Active”. The Activity [15] was “inactive”, the Activity [16] was “Active” and the Activity [17] was “Active”. The Activity [18] was “Active”, the drug content [19] was 0.6 µg/g and the Activity [20] was “Active”. The Activity [21] was “inactive”.

Work on `O=[N+]([O-])NC1=NCCN1Cc1ccc(Cl)nc1` [IMIDACLOPRID] yielded a drug content [22] of 0.77 µg/g, a drug content [23] of 0.2 µg/g and a drug content [24] of 14.2 µg/g. The drug content [25] was 3.25 µg/g.

In the case of `O=[N+]([O-])/N=C1\NCCN1Cc1ccc(Cl)nc1`, the Activity [26] is reported as “Active”, the Activity [27] is reported as “Active” and the Activity [28] is reported as “inactive”. The Activity [29] was “inactive”, the Activity [30] was “inactive” and the Activity [31] was “Active”. For the same compound, the Activity [32] was “Active”.
